{"source": "patent US20110098261A1", "about": "“TRITERPENOID-BASED COMPOUNDS USEFUL AS VIRUS INHIBITORS” (priority 2008, published 2011)", "key": {"[1]": {"system": "avian influenza virus KBNP-0028 (KCTC 10866BP)", "format": "cell-based, A/chicken/Korea/SNU0028/2000(H9N2)"}, "[2]": {"system": "chicken embryo fibroblast (CEF) cells"}}, "note": "Where two headings read alike, the source gives them in different places."}
{"smiles": "C=C(C)[C@@H]1CC[C@]2(C=O)CC[C@]3(C)[C@H](CC[C@@H]4[C@@]5(C)CC[C@H](O)C(C)(C)[C@@H]5CC[C@]43C)[C@@H]12", "note": "[12B-AJ-26A, betulinic aldehyde]", "values": [{"measurement": "Antiviral activity (in words)", "setting": "[1]", "value": "showed antiviral activity"}, {"measurement": "Cytotoxicity assay (absorbance)", "setting": "[2]; 6.25 μg/mL", "value": 0.352}, {"measurement": "Cytotoxicity assay (absorbance)", "setting": "[2]; 12.5 μg/mL", "value": 0.326}, {"measurement": "Cytotoxicity assay (absorbance)", "setting": "[2]; 25 μg/mL", "value": 0.324}, {"measurement": "Cytotoxicity assay (absorbance)", "setting": "[2]; 50 μg/mL", "value": 0.325}, {"measurement": "Cytotoxicity assay (absorbance)", "setting": "[2]; 100 μg/mL", "value": 0.434}, {"measurement": "Cytotoxicity assay (absorbance)", "setting": "[2]; 200 μg/mL", "value": 0.421}]}
